Assays:
[1] = (§1) Inhibition of [3H]pirenzepine binding towards muscarinic acetylcholine receptor in rat brain.
[2] = Inhibition of [3H]QNB binding towards muscarinic acetylcholine receptor in rat heart
[3] = molecular target: T1, Muscarinic acetylcholine receptor M1 (Homo sapiens, UniProt P11229); experiment: Inhibition of [3H]QNB binding to CHO cells bearing transfected muscarinic acetylcholine receptor M1; assay type: cell-based, Cricetulus griseus
T1 sequence (P11229 whole entry): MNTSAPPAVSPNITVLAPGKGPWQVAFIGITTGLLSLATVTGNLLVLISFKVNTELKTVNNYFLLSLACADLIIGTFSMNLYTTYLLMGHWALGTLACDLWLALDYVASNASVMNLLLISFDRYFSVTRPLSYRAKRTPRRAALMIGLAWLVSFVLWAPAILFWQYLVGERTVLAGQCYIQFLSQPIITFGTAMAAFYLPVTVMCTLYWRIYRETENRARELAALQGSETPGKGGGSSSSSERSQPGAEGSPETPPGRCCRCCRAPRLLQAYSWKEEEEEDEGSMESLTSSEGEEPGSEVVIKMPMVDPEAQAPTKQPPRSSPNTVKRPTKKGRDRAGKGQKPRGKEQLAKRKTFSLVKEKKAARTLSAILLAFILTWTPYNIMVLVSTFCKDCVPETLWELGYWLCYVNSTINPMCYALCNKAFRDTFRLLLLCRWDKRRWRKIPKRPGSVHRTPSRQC

[4] = molecular target: Muscarinic acetylcholine receptor M3 (Homo sapiens, UniProt P20309); experiment: Inhibition of [3H]QNB binding to CHO cells bearing transfected muscarinic acetylcholine receptor M3; assay type: cell-based, Cricetulus griseus
Muscarinic acetylcholine receptor M3, sequence (P20309 whole entry, looked up): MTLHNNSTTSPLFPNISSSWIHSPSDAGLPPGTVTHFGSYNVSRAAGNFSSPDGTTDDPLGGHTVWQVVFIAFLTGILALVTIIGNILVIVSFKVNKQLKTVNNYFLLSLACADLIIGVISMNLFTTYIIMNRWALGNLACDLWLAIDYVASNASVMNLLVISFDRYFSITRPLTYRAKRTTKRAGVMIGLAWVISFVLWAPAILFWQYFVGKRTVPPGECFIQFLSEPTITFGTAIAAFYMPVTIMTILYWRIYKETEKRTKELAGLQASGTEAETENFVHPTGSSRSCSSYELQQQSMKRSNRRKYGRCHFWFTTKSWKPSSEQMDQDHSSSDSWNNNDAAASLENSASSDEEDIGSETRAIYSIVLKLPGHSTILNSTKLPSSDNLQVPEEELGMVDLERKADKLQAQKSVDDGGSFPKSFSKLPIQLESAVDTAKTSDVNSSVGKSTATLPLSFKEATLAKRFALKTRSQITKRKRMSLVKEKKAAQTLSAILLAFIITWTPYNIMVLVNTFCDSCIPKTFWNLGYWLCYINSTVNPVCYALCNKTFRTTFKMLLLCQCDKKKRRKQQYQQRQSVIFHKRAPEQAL

[5] = molecular target: T2, Muscarinic acetylcholine receptors; M1 & M2 (Homo sapiens, UniProt P11229+P08172); experiment: Inhibition of [3H]QNB binding towards muscarinic acetylcholine receptor in guinea pig ileum.; assay type: tissue-based, Cavia porcellus; settings: target entry is the homologue from another species
T2 sequence (P11229 whole entry): T1 sequence (P11229 whole entry)
T2 sequence (P08172 whole entry): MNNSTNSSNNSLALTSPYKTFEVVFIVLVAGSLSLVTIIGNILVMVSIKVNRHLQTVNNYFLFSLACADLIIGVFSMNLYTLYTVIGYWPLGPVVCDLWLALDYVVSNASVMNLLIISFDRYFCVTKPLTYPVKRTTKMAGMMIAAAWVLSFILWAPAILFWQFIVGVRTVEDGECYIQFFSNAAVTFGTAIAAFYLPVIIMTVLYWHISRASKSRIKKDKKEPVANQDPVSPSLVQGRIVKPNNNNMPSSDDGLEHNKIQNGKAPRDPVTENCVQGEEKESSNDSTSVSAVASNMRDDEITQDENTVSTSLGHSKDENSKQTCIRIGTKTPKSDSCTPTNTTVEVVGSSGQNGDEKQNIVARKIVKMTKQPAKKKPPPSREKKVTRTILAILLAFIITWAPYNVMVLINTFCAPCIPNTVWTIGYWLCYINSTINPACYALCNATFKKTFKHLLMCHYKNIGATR

[6] = as §1; assay type: tissue-based
[7] = Inhibition of [3H]QNB binding towards muscarinic acetylcholine receptor in rat brain; assay type: tissue-based

SMILES	Ki [1] [nM]	Ki [2] [nM]	Ki [3] [nM]	Ki [4] [nM]	Ki [5] [nM]	Ki [6] [nM]	Ki [7] [nM]
CN1[C@@H]2CC[C@H]1C[C@@H](OC(=O)C(CO)c1ccccc1)C2 (stereo partly drawn) [ATROPINE]	0.545	0.545	–	–	–	–	–
CN1CC2CC(OC(=O)C(C)(c3ccccc3)c3ccccc3)CC1C2 (stereo not drawn) [AZAPROPHEN]	–	0.13	0.088	0.472	0.279	0.196	0.118

— ChEMBL document CHEMBL1125674, “Crystal, solution, and molecular modeling structural properties and muscarinic antagonist activity of azaprophen” (J Med Chem, 1991)
